Laboratory results from patent publication US20120083473A1, “TREATMENT OF CONDITIONS BY TOLL-LIKE RECEPTOR MODULATORS” (priority 2010, published 2012).

What was measured:
[1] = system: murine peritoneal macrophages (PEC); test: Cross-tolerance toward TLR ligands and pro-inflammatory cytokines in PEC (gene expression); type: cell-based, mice
Description: In addition, tolerance is tested also in response to primary cytokines IL-1-beta and TNFalpha. This approach clarifies whether the TLR7 partial agonist compound 2 of Table 2 promotes cross-tolerance of different members of the TLR family, as well as of the IL-1 and TNF receptor systems, which has been regularly reported.
A second group of experiments was performed to evaluate the capacity of TMX to promote cross tolerance toward several TLR ligands and pro-inflammatory cytokines. PECs maintained in medium or pre-treated for 20 hours with 10 μM or 1 μM of TMX and re-challenged with several TLR agonists or pro-inflammatory cytokines were analyzed for the expression of selected M1 and M2 genes.
(§1) Cell Culture and treatments. Peritoneal exudate cells (PEC) were harvested from mice injected with 1 ml of 3% (w/v) thioglycollate medium (Difco, Detroit, Mich.) 4 days prior to isolation. PECs were incubated in RPMI 1640 medium, containing 10% fetal bovine serum, 2 mM glutamine and 100 U/ml of penicillin-streptomycin. The concentration for the different treatments were as follows: LPS (100 ng/ml) (Lipopolysaccharide from Salmonella Abortus Equi S-form, Alexis), CpG (1 μg/ml), Pam3CSK (2 μg/ml), Poly I:C (10 μg/ml), Loxorubine (100 μM), flagellin (100 ng/ml) IL-1β (20 ng/ml), TNF (20 ng/ml), IL-10 (20 ng/ml) (Peprotech), IFNγ (200 U/ml) (Peprotech). To induce TMX tolerance, cells were incubated in the presence of TMX (10 μM or 1 μM) for 20 hrs, washed and maintained in RPMI medium for 2 hrs and then re-challenged with TMX (10 μM) for 4 hrs. To induce TMX-tolerization (T/M) cells were treated with TMX for 20 hrs, washed and then maintained in medium for additional 6 hours, without TMX re-challenge. To induce M1-activation, cells were incubated in medium for 20 hrs, washed, left in medium for 2 hrs and finally stimulated with TMX (10 μM) for 4 hrs. Control cells (M/M) were cultured in medium for the entire period of the experiment. For gene expression analysis, total RNA was extracted from TMX treated and untreated cells with trizol (Invitrogen), according to the manufacturer's instructions. To analyze cytokines and chemokines production supernatants were collected 24 hrs after the second challenge with TMX.
Real-Time PCR. Total RNA was purified as previously described. Briefly, reverse transcription from 1 μg of RNA was performed using cDNA Archive kit (Applied Biosystem, NJ, USA). Real time PCR was performed using Power Syber Green PCR Master Mix (Applied Biosystem, NJ, USA) and detected by 7900HT Fast Real-Time System (Applied Biosystem, NJ, USA). […] Results were normalized to the expression of the housekeeping gene β-actin and then expressed as folds of upregulation, with respect to the control cell population.

NF-κB and STATs = NF-κB and STATs activity in TMX-tolerant macrophages (Western blot); type: cell-based, mice
Description: To investigate NF-κB and STATs activity upon TMX-mediated activation and tolerance, p65 and p50 NE-KB nuclear translocation and the levels of phospho-STATs proteins, respectively was analyzed. PEC treated 15 min with IFN-γ (500 U/mL) or with IL-10 (20 ng/ml) were used as positive controls for phospho-STAT1 and phospho-STAT3, respectively. In tolerance TMX 10 microM induces nuclear accumulation of p50 NF-kappaB and phosphorylation of STAT-3 (FIG. 6).
as §1, with “To analyze cytokines and chemokines production supernatants were collected 24 hrs after the second challenge with TMX.” left out
Western blot analysis. For the NF-κB proteins, nuclear and cytosolic extracts were analyzed by SDS/PAGE (10% acrylamide) as described. […] Then, optical density was determined by “Quantity One” software.

## COCCOc1nc(N)c2nc(O)n(Cc3ccc(C(=O)NCCOCCOCCOCCOCCOCCOCCn4cc(CCC(=O)O)nn4)cc3)c2n1 [Compound 2]
[1]; PECs pre-treated with TMX
  M2 genes expression on re-challenge with different TLR agonists: triggered the expression of M2 genes
[1]; PECs tolerized by 20 hours pre-treatment with 10 μM TMX
  M1 genes expression in response to TLR ligands: inability to up-regulate M1 genes expression
[1]; TMX 10 microM, exception CXCL10 following re-challenge with CpG, poly I:C, LPS
  cross-tolerance: observed
[1]; TNF 20 ng/ml
  IL-10 expression following re-challenge of TMX-tolerant macrophages with TNF: still induced
NF-κB and STATs; any condition
  activation of STAT-6: No detectable activation
NF-κB and STATs; in tolerance, TMX 10 microM
  nuclear accumulation of p50 NF-kappaB: induces
  phosphorylation of STAT-3: induces
